# Laboratory results reported in patent US6703362B1, “Random peptides that bind to gastro-intestinal tract (GIT) transport receptors and related methods” (Cytogen Corporation, priority 1997, dated 2004).
# Square brackets hold non-standard residues; d marks the D form. Peptide text beside a SMILES is read from it. * marks the point of attachment. Dansyl = CN(C)c1cccc2c(S(=O)(=O)*)cccc12
# Key:
# [1] = test system: P100 fractions harvested from Caco-2 cells; assay: Binding of dansylated peptides to P100 fractions and peptide/particle correlation
# Protocol: Caco-2 cell membrane (P100) and cytosolic (S100) fractions were prepared using a modification of the method described in Kinsella, B. T., O'Mahony, D. J. and G. A. FitzGerald, 1994, J. Biol. Chem. 269(47): 29914-29919. Confluent Caco-2 cell monolayers (grown in 75 cm^2 flasks for up to 1 week at 37° C. and 5% CO2) were washed twice in Dulbecco's PBS (DPBS) and the cells were harvested by centrifugation at 1000 rpm after treatment with 10 mM EDTA-DPBS. The cells were washed 3 times in DPBS and the final cell pellet was resuspended in 3 volumes of ice cold HED buffer (20 mM HEPES (pH 7.67), 1 mM EGTA, 0.5 mM dithiothreitol, 1 mM phenylmethylsulphonyl fluoride (PMSF)). The cells were allowed to swell for 5 min on ice prior to homogenization for 30 sec. The homogenates were centrifuged at 40,000 rpm for 45 min at 4° C. The supernatant (S100) was removed and the pellet (P100) was resuspended in HEDG buffer (20 mM HEPES (pH 7.67), 1 mM EGTA, 0.5 mM dithiothreitol, 100 mM NaCl, 10% glycerol, 1 mM PMSF). Protein concentrations were determined using the Bradford assay (Bradford, M. M., 1976, Anal. Biochem. 72: 248-254).
# Binding of peptide and/or peptide-coated PLGA particles to membrane (P100) and cytosolic (S100) fractions was assessed by detection of the dansyl moiety incorporated in the peptide. Costar ninety six well ELISA plates were coated with S100 and P100 fractions (100 μg/ml in 0.05 M NaHCO3) overnight at 4° C. The plates were blocked with 0.5% bovine serum albumin in DPBS for 1 h at room temperature and washed 3 times in 1% BSA-DPBS. […] After washing 3 times in 1% BSA-DPBS 100 μl of TMB substrate (3,3′,5′,5-tetramethylbenzidine; Microwell Peroxidase Substrate System (Kirkegaard and Perry Laboratories 50-76-00)) was added and the optical density was measured at 650 nm at various time intervals.
# Binding of dansylated peptides to P100 fractions was assessed to determine if peptide binding was predictive of peptide-coated particle binding.
# [2] = test system: fixed Caco-2 cells; assay: Inhibition of GST-peptide fusion binding to fixed Caco-2 cells by synthetic peptides; details: peptide from 100 μg/ml serially diluted; GST fusion 10 μg
# Source text: Caco-2 cells were fixed, treated with phenylhydrazine and blocked as described above. […] GST-PAX2 binding was inhibited by ZElan032, ZElan033, and ZElan035.
# [3] = test system: P100 membrane fractions derived from Caco-2 cells; assay: Dansylated peptide ELISA: relative binding of PAX2 and HAX42 peptides to P100 (ratio to ZElan021); details: ratio to ZElan021 = 1.00
# Outline: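 P100 membrane fraction from Caco-2 cells (normally 100 μg/ml) coated in carbonate buffer pH9.6, blocked with 2% Marvel/PBS, then incubated with dansylated peptides. Detection via anti-mouse HRP conjugate and TMB, OD read at 650nm; binding expressed relative to ZElan021.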
# [4] = test system: P100 membrane fraction derived from Caco-2 cells; assay: GST-PAX2 peptides relative binding to P100 fractions (ratio to GST-HAX42); details: 20 μg/ml GST-peptide; binding to plastic subtracted; GST-HAX42 = 1.00
# Protocol: The peptides and proteins were analyzed by a dansylated peptide ELISA method in which 96 well plates were coated overnight at 4° C. with 100 μl/well coating protein (normally 100 μg/ml P100 membrane fraction) in 0.05M carbonate buffer pH9.6. Nonspecific binding was blocked using 200 μl/well, 2% Marvel/PBS for 2 hours at 37° C. prior to incubation with dansylated peptides. The plates were washed three times with PBS/0.05% Tween 20 and after each subsequent incubation step. […] A buffer blank control was included to ensure that background binding to plastic was not due to the antibodies used in the assay system. […] The plates were then incubated with an anti-mouse X-HRP conjugated antibody (Southern Biotech 1060-05) at a 1:10,000 dilution in blocking solution, 100 μl/well for 1 hour at room temperature. Plates were developed using 75 μl/well Bionostics TMB substrate and incubated for approximately 10 minutes. The developing reaction was stopped using Bionostics Red Stop solution (25 μl/well), and the optical density of the plates was read at 650nm.
# After subtraction of the GST-peptide binding to plastic from P100 binding values, the binding of GST-PAX2 peptides were represented as a ratio of GST-HAX42 binding to P100, which was given the arbitrary value of 1.00. The following ratios were determined from binding to P100 of GST-peptides at a peptide concentration of 20 μg/ml. Bold denotes positive binding to the P100 membrane fraction.
# [5] = test system: ZElan024 (P31), ZElan018 (PAX2), ZElan021 (HAX42); assay: Crossreactive binding of GST fusions to dansylated peptides
# [6] = test system: fixed Caco-2 or C2BBe1 cells; assay: ELISA of GST fusion proteins on fixed Caco-2 or C2BBe1 cells; format: binding
# Protocol: Fixed Caco-2, C2BBe1, and A431 cell plates were prepared by growing cells on tissue culture treated microtiter plates. When cells were confluent, plates were fixed with 10% formaldehyde, washed twice with PBS and stored with 0.5%BSA-PBS at −20° C. […] The standard ELISA procedure was followed at this point.
# The standard ELISA procedure was modified as follows. GST proteins were diluted to an appropriate concentration in PBS containing lkBSA and 0.05% Tween20 (1%BPT), titered and incubated one hour at room temperature. Following five washes an anti-GST monoclonal antibody was added (Sigma, St. Louis Clone GST-2 diluted 1:10,000 in 1%BPT) and incubated one hour. After five more washes goat anti-mouse IgG2b-HRP was added (Southern Biotechnology Associates Inc., Birmingham, Ala., diluted 1:4000 in 1%BPT) and incubated one hour. After five washes plates were developed with TMB peroxidase substrate (Kirkegard and Perry, Gaithersburg, Md.). All data is presented with background binding subtracted.
# [7] = Peptide stability in simulated intestinal fluid (SIF); format: in vitro ADME
# Protocol: The relative stability for ZElanO3l, ZElanO53 and ZElan054 was determined in simulated intestinal fluid (SIF) SIF was made by dissolving 100 mg of pancreatin (Sigma cat#P-1625, lot# 122H0812)in 8.4 ml of phosphate stock solution, adjusting the pH to 7.5 with 0.2N NaOH and adjusting the volume to 10 ml with water.
# Peptide (3.25 mg) was dissolved in 3.25 ml of 10,000 fold diluted SIF solution at 37° C. Aliquots (0.7 ml) of the digestion solution were then withdrawn at <1 min, 1 h, 3 h, and 21 h or 24 h. The samples were quickly passed through a syringe filter (Millipore Millex-GV 0.22 μm, part# SLGV025LS, lot# H2BM95250) and 300 μL of the filtered solution was immediately injected onto a Hewlett-Packard HPLC system equipped with a C-8 column (Applied Biosystems column and guard column: column-p/n 0711-0023 Spheri-5 ODS 5 μm, 220×4.6 mm). The products were eluted at 1.5 ml/min using an acetonitrile-water gradient. The major fluorescent peaks were collected, lyopholized and identified by MS analysis.
compound,measurement,setting,value
H-K(Dansyl)SDHALGTNLRSDNAKEPGDYNCCGNGNSTGRKVFNRRRPSAIPT-NH2 (cysteines drawn unpaired) [ZElan021],binding of dansylated peptide to P100 compared to scrambled PAX2 control,[1]; initial assay,strong binding
same,inhibition of GST-HAX42 binding,[2],not inhibited
same,Binding value at 20 μg/ml,[3]; HAX42 peptides,1.00
same,Binding value at 25 μg/ml,"[3]; HAX42 peptides, first 25 μg/ml column",1.00
same,Binding value at 50 μg/ml,"[3]; HAX42 peptides, first 50 μg/ml column",1.00
same,Binding value at 25 μg/ml,"[3]; HAX42 peptides, second 25 μg/ml column",1.00
same,Binding value at 50 μg/ml,"[3]; HAX42 peptides, second 50 μg/ml column",1.00
same,Binding value at 25 μg/ml,"[3]; HAX42 peptides, third 25 μg/ml column",1.00
gst-SDHALGTNLRSDNAKEPGDYNCCGNGNSTGRKVFNRRRPSAIPT [GST-HAX42],Value (binding to P100 as ratio of GST-HAX42 binding),[4],1.00
same,crossreactivity to ZElan018 (PAX2) and ZElan021 (HAX42),[5]; 5 μg/ml concentration used in competition assays,crossreactivity
same,binding to fixed Caco-2 or C2BBe1 cells relative to GST control,[6],weak to moderate binding
gst-STPPSREAYSRPYSVDSDSDTNAKHSSHNRRLRTRSRPN [GST-PAX2],Value (binding to P100 as ratio of GST-HAX42 binding),[4],1.79
same,crossreactive binding to ZElan024 (P31) and ZElan018 (PAX2),[5]; 0.5 μg/ml concentration used in competition assays,no crossreactive binding
same,binding to fixed Caco-2 or C2BBe1 cells relative to GST control,[6],bound fixed Caco-2 or C2BBe1 cells
H-K(Dansyl)STPPSREAYSRPYSVDSDSDTNAKHSSHNRRLRTRSRPNG-NH2 [ZElan018],binding of dansylated peptide to P100 compared to scrambled PAX2 control,[1]; repeat assay,indistinguishable from the scrambled PAX2 control
same,inhibition of GST-HAX42 binding,[2],inhibited
same,Binding value at 20 μg/ml,"[3]; PAX2 peptides, first 20 μg/ml column",−0.33
same,Binding value at 50 μg/ml,"[3]; PAX2 peptides, first 50 μg/ml column",0.95
same,Binding value at 20 μg/ml,"[3]; PAX2 peptides, second 20 μg/ml column",1.07
same,Binding value at 50 μg/ml,"[3]; PAX2 peptides, second 50 μg/ml column",1.01
"C[C@@H](O)[C@H](NC(=O)[C@@H](N)CCCCNS(=O)(=O)c1cccc2c(N(C)C)cccc12)C(=O)N[C@H](CCCNC(=N)N)C(=O)N[C@@H](CCCCN)C(=O)N[C@@H](CO)C(=O)N[C@@H](CO)C(=O)N[C@H](CCCNC(=N)N)C(=O)N[C@@H](CO)C(=O)N[C@@H](CC(N)=O)C(=O)N1CCC[C@H]1C(=O)N[C@H](CCCNC(=N)N)C(=O)NCC(=O)N[C@H](CCCNC(=N)N)C(=O)N[C@H](CCCNC(=N)N)C(=O)N[C@@H](Cc1c[nH]cn1)C(=O)N1CCC[C@H]1C(=O)NCC(N)=O [ZElan053, H2N—K(dns)TrKSSrSNPrGrrHPG—CONH2] (H-K(Dansyl)T[dR]KSS[dR]SNP[dR]G[dR][dR]HPG-NH2)",binding of dansylated peptide to P100 compared to scrambled PAX2 control,[1]; initial assay,binding at the highest dilution only
same,inhibition of GST-P31 binding,[2],inhibited
same,Rel. Stab.,"[7]; rank, 1 = most stable to SIF",1
same,"remaining at 1 min, 1 mg/ml","[7]; simulated intestinal fluid (pancreatin), pH 7.5, 10,000 fold diluted SIF, 37° C., read-out: Percent Remaining at: 1 m",100%
same,"remaining at 1 h, 1 mg/ml","[7]; simulated intestinal fluid (pancreatin), pH 7.5, 10,000 fold diluted SIF, 37° C., read-out: Percent Remaining at: 1 h",98.3%
same,"remaining at 3 h, 1 mg/ml","[7]; simulated intestinal fluid (pancreatin), pH 7.5, 10,000 fold diluted SIF, 37° C., read-out: Percent Remaining at: 3 h",98.1%
same,"remaining at 24 h, 1 mg/ml","[7]; simulated intestinal fluid (pancreatin), pH 7.5, 10,000 fold diluted SIF, 37° C., read-out: Percent Remaining at: 24 h",94%
